Patent US20100249132A1, “IMIDAZOLE DERIVATIVES” (MERCK PATENT GESELLSCHAFT MIT BESCHRANKTER HAFTUNG, priority 2007, published 2010)

Molecular target: T1, recombinant autotaxin (Homo sapiens, UniProt Q13822)
T1 construct: made in house; host or cells: Hi5 insect cells (baculovirus)
Test: Autotaxin test (enzyme test), Amplex Red fluorescence
Assay type: biochemical
Details: substrate LPC 75 μM, Amplex Red detection, read-out: IC50 (autotaxin inhibition, enzyme test)
Procedure, shortened: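 Recombinant human autotaxin from baculovirus/Hi5 (16 ng) was preincubated with compound 30 min at 22 °C. Reaction with 75 μM egg LPC ran 90 min at 37 °C. Released choline was coupled via alkaline phosphatase, choline oxidase and HRP to Amplex Red, read as resorufin fluorescence (ex485/em612) in kinetic mode.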

SMILES: CCCCc1ccc(NC(=O)Nc2[nH]c(Cc3ccc(OCC(=O)O)cc3)nc2C(N)=O)cc1 [Compound A39, (4-{5-[3-(4-Butylphenyl)ureido]-4-carbamoyl-1H-imidazol-2-ylmethyl}phenoxy)acetic acid]
- IC50: 1 to 10 µM

SMILES: NC(=O)c1nc(Cc2ccc(C(=O)O)cc2)[nH]c1NC(=O)Nc1cccs1 [Compound A102, 4-[4-Carbamoyl-5-(3-thiophen-2-ylureido)-1H-imidazol-2-ylmethyl]benzoic acid]
- IC50: 1 to 10 µM

SMILES: Cc1cc(C)cc(NC(=O)Nc2[nH]c(-c3ccc(CC(=O)O)cc3)nc2C(N)=O)c1 [Compound A25, (4-{4-Carbamoyl-5-[3-(3,5-dimethylphenyl)-ureido]-1H-imidazol-2-yl}phenyl)acetic acid]
- IC50: > 10 µM

SMILES: NC(=O)c1nc(CN2C(=O)c3ccccc3C2=O)[nH]c1NC(=O)Nc1ccc(Cl)cc1 [Compound B78]
- IC50: > 10 µM

SMILES: NC(=O)c1nc(Cc2ccc(C(=O)O)cc2)[nH]c1NC(=O)Nc1cc(C(F)(F)F)ccc1F [Compound A17, 4-{4-Carbamoyl-5-[3-(2-tluoro-5-trifluoromethyl-phenyl)ureido]-1H-imidazol-2-ylmethyl}benzoic acid]
- IC50: > 10 µM

SMILES: NC(=O)c1nc(Cc2ccc(OCC(=O)O)cc2)[nH]c1NC(=O)Nc1ccc(Oc2ccccc2)cc1 [Compound A45, (4-{4-Carbamoyl-5-[3-(4-phenoxyphenyl)ureido]-1H-imidazol-2-ylmethyl}phenoxy)acetic acid]
- IC50: > 10 µM

SMILES: CCCCc1ccc(NC(=O)Nc2[nH]c(Cc3ccc(C(=O)N4C[C@@H](C)O[C@@H](C)C4)o3)nc2C(N)=O)cc1 [Compound A82, 5-[3-(4-Butylphenyl)ureido]-2-[5-((5R,6S)-2,6-dimethylmorpholine-4-carbonyl)furan-2-yl-methyl]-1H-imidazole-4-carboxamide]
- IC50: > 10 µM

SMILES: Cc1cc(Cl)ccc1NC(=O)Nc1[nH]c(COc2ccc(CC(=O)O)cc2)nc1C(N)=O [Compound A62, (4-{4-Carbamoyl-5-[3-(4-chloro-2-methylphenyl)-ureido]-1H-imidazol-2-ylmethoxy}phenyl)acetic acid]
- IC50: 1 to 10 µM

SMILES: CC(C)c1ccc(NC(=O)Nc2[nH]c(-c3ccc(OCC(=O)O)cc3)nc2C(N)=O)cc1 [Compound A51, (4-{4-Carbamoyl-5-[3-(4-isopropylphenyl)ureido]-1H-imidazol-2-yl}phenoxy)acetic acid]
- IC50: 1 to 10 µM

SMILES: Cc1c(Cl)cccc1NC(=O)Nc1[nH]c(Cc2ccc(C(=O)O)cc2)nc1C(N)=O [Compound A8, 4-{4-Carbamoyl-5-[3-(3-chloro-2-methylphenyl)-ureido]-1H-imidazol-2-ylmethyl}benzoic acid]
- IC50: 1 to 10 µM

SMILES: NC(=O)c1nc(Cc2ccc(C(=O)O)o2)[nH]c1NC(=O)Nc1ccc(Cl)cc1 [Compound A30, 5-{4-Carbamoyl-5-[3-(4-chlorophenyl)ureido]-1H-imidazol-2-ylmethyl}furan-2-carboxylic acid]
- IC50: 1 to 10 µM

SMILES: NC(=O)c1nc(-c2ccc(CC(=O)O)cc2)[nH]c1NC(=O)Nc1cccc(Cl)c1 [Compound A21, (4-{4-Carbamoyl-5-[3-(3-chlorophenyl)ureido]-1H-imidazol-2-yl}phenyl)acetic acid]
- IC50: > 10 µM

SMILES: NC(=O)c1nc(Cc2ccc(C(=O)O)o2)[nH]c1NC(=O)Nc1ccc2ccccc2c1 [Compound A33, 5-[4-Carbamoyl-5-(3-naphthalen-2-ylureido)-1H-imidazol-2-ylmethyl]furan-2-carboxylic acid]
- IC50: > 10 µM

SMILES: Cc1cc(C)c(NC(=O)Nc2[nH]c(Cc3ccc(C(=O)O)o3)nc2C(N)=O)c(C)c1 [Compound A31, 5-{4-Carbamoyl-5-[3-(2,4,6-trimethylphenyl)-ureido]-1H-imidazol-2-ylmethyl}furan-2-carboxylic acid]
- IC50: 1 to 10 µM

SMILES: Cc1ccc(NC(=O)Nc2[nH]c(COc3ccc(CC(=O)O)cc3)nc2C(N)=O)cc1 [Compound A58, {4-[4-Carbamoyl-5-(3-p-tolylureido)-1H-imidazol 2-ylmethoxy]phenyl}acetic acid]
- IC50: > 10 µM

SMILES: NC(=O)c1nc(Cc2ccc(C(=O)O)o2)[nH]c1NC(=O)NCCc1ccccc1 [Compound A27, 5-[4-Carbamoyl-5-(3-phenethylureido)-1H-imidazol-2-ylmethyl]furan-2-carboxylic acid]
- IC50: 1 to 10 µM

SMILES: NC(=O)c1nc(Cc2ccc(OCC(=O)O)cc2)[nH]c1NC(=O)c1cc(-c2ccc(Cl)cc2)n[nH]1 [Compound B82]
- IC50: > 10 µM

SMILES: NC(=O)c1nc(CCC(=O)Nc2ccc3[nH]c(=O)oc3c2)[nH]c1NC(=O)Nc1ccc(Cl)cc1 [Compound B79]
- IC50: > 10 µM

SMILES: NC(=O)c1nc(-c2ccc(OCC(=O)O)cc2)[nH]c1NC(=O)Nc1cccc(C(F)(F)F)c1 [Compound A49, (4-{4-Carbamoyl-5-[3-(3-trifluoromethylphenyl)-ureido]-1H-imidazol-2-yl}phenoxy)acetic acid]
- IC50: 1 to 10 µM

SMILES: NC(=O)c1nc(-c2ccc(CC(=O)O)cc2)[nH]c1NC(=O)Nc1ccc(Cl)cc1 [Compound A22, (4-{4-Carbamoyl-5-[3-(4-chlorophenyl)ureido]-1H-imidazol-2-yl}phenyl)acetic acid]
- IC50: > 10 µM

SMILES: CC(C)c1ccc(NC(=O)Nc2[nH]c(COc3ccc(CC(=O)O)cc3)nc2C(N)=O)cc1 [Compound A57, (4-{4-Carbamoyl-5-[3-(4-isopropylphenyl)ureido]-1H-imidazol-2-ylmethoxy}phenyl)acetic acid]
- IC50: 1 to 10 µM

SMILES: NC(=O)c1nc(Cc2ccc(C(=O)NCCc3c[nH]cn3)cc2)[nH]c1NC(=O)Nc1ccc(C(F)(F)F)cc1 [Compound A103, 2-{4-[2-(1H-Imidazol-4-yl)ethylcarbamoyl]benzyl}-5-[3-(4-trifluoromethylphenyl)ureido]-1H-imidazole-4-carboxamide]
- IC50: > 10 µM

SMILES: Cc1cc(Cl)ccc1NC(=O)Nc1[nH]c(Cc2ccc(C(=O)O)s2)nc1C(N)=O [Compound A74, 5-{4-Carbamoyl-5-[3-(4-chloro-2-methylphenyl)-ureido]-1H-imidazol-2-ylmethyl}thiophene-2-carboxylic acid]
- IC50: 1 to 10 µM

SMILES: Cc1oc(-c2ccccc2)cc1NC(=O)Nc1[nH]c(Cc2ccc(C(=O)O)cc2)nc1C(N)=O [Compound A101, 4-{4-Carbamoyl-5-[3-(2-methyl-5-phenylfuran-3-yl)ureido]-1H-imidazol-2-ylmethyl}benzoic acid]
- IC50: > 10 µM

SMILES: NC(=O)c1nc(Cc2ccc(C(=O)O)s2)[nH]c1NC(=O)Nc1ccc(F)c(C(F)(F)F)c1 [Compound A75, 5-{4-Carbamoyl-5-[3-(4-fluoro-3-trifluoromethyl-phenyl)ureido]-1H-imidazol-2-ylmethyl}-thiophene-2-carboxylic acid]
- IC50: > 10 µM

SMILES: NC(=O)c1nc(-c2ccc(C(=O)O)cc2)[nH]c1NC(=O)Nc1ccc(C(F)(F)F)cc1 [Compound A18, 4-{4-Carbamoyl-5-[3-(4-trifluoromethylphenyl)-ureido]-1H-imidazol-2-yl}benzoic acid]
- IC50: > 10 µM

SMILES: NC(=O)c1nc(Cc2ccc(C(=O)O)o2)[nH]c1NC(=O)Nc1ccc(Cl)c(C(F)(F)F)c1 [Compound A29, 5-{4-Carbamoyl-5-[3-(4-chloro-3-trifluoromethyl-phenyl)ureido]-1H-imidazol-2-ylmethyl}furan-2-carboxylic acid]
- IC50: > 10 µM

SMILES: CCCCc1ccc(NC(=O)Nc2[nH]c(Cc3ccc(C(=O)N4CCC(CCO)CC4)o3)nc2C(N)=O)cc1 [Compound A91, 5-[3-(4-Butylphenyl)ureido]-2-{5-[4-(2-hydroxy-ethyl)piperidine-1-carbonyl]furan-2-ylmethyl}-1H-imidazole-4-carboxamide]
- IC50: 1 to 10 µM
